Results published in US11459336B2, “Pyrazine carbamates and their use as GluN2B receptor modulators” (JANSSEN PHARMACEUTICA NV, priority 2019, dated 2022).

Molecular target: T1, human GluN1/GluN2B NMDA receptors (Homo sapiens, UniProt Q13224)
T1 construct: expressed in transfected cells
Assay: Calcium flux (FLIPR) assay on cloned human GluN1/GluN2B ion channels expressed in mammalian cells, standard assay
Assay type: cell-based
Conditions: glutamate ~EC40, 10 μM glycine, stable cell line with Tet-On induced expression
Experimental: NMDA receptors are ion channels that are highly permeable to Ca^2+ ions, rendering it possible to monitor NMDA receptor function using cell-based calcium flux assay. In this assay, co-agonists glutamate and glycine are added to cells heterologously expressing human GluN1/GluN2B NMDA receptors to initiate cellular Ca^2+ influx. The time course of the changes in intracellular calcium is measured using a fluorescent dye and a FLIPR (Fluorometric Imaging Plate Reader) device.
Twenty four hours before measurements, the expression of the NMDA receptors in the stable cell line is induced with Tet-On inducible system in the presence of a non-selective NMDA receptor blocker. On the day of the experiment, cell culture media is carefully washed and the cells are loaded with Calcium 5 Dye Kit (Molecular Devices) in dye loading buffer containing 137 mM NaCl, 4 mM KCl, 2 mM CaCl2, 0.5 mM MgCl2 (standard assay) or 1.5 mM MgCl2 (HTS assay), 10 mM HEPES and 5 mM D-glucose; pH 7.4. After 1 h incubation at the room temperature, the dye is washed away with the assay buffer (137 mM NaCl (standard assay) or 150 mM (HTS assay), 4 mM KCl (standard assay) or 3 mM (HTS assay), 2 mM CaCl2, 0.01 mM EDTA, 10 mM HEPES and 5 mM D-glucose; pH 7.4) In the FLIPR TETRA reader, various concentrations of the test compounds are added to the cells for 5 min while fluorescence is monitored to detect potential agonist activity. Next, co-agonists, glutamate and glycine are added for another 5 minutes. The concentration of glutamate corresponding to ˜EC40 (standard assay) or EC40 (HTS assay) is used to maximize the assay's signal window and ability to detect NMDA receptor antagonists and negative allosteric modulators. A saturating concentration (10 μM) of glycine is also present in the assay. A non-selective NMDA receptor antagonist, (+)MK-801 is used as a positive control for antagonist activity. The fluorescent signal in the presence of test compounds is quantified and normalized to the signal defined by the appropriate control wells.

T1 sequence (Q13224 27-1484, other chains not shown): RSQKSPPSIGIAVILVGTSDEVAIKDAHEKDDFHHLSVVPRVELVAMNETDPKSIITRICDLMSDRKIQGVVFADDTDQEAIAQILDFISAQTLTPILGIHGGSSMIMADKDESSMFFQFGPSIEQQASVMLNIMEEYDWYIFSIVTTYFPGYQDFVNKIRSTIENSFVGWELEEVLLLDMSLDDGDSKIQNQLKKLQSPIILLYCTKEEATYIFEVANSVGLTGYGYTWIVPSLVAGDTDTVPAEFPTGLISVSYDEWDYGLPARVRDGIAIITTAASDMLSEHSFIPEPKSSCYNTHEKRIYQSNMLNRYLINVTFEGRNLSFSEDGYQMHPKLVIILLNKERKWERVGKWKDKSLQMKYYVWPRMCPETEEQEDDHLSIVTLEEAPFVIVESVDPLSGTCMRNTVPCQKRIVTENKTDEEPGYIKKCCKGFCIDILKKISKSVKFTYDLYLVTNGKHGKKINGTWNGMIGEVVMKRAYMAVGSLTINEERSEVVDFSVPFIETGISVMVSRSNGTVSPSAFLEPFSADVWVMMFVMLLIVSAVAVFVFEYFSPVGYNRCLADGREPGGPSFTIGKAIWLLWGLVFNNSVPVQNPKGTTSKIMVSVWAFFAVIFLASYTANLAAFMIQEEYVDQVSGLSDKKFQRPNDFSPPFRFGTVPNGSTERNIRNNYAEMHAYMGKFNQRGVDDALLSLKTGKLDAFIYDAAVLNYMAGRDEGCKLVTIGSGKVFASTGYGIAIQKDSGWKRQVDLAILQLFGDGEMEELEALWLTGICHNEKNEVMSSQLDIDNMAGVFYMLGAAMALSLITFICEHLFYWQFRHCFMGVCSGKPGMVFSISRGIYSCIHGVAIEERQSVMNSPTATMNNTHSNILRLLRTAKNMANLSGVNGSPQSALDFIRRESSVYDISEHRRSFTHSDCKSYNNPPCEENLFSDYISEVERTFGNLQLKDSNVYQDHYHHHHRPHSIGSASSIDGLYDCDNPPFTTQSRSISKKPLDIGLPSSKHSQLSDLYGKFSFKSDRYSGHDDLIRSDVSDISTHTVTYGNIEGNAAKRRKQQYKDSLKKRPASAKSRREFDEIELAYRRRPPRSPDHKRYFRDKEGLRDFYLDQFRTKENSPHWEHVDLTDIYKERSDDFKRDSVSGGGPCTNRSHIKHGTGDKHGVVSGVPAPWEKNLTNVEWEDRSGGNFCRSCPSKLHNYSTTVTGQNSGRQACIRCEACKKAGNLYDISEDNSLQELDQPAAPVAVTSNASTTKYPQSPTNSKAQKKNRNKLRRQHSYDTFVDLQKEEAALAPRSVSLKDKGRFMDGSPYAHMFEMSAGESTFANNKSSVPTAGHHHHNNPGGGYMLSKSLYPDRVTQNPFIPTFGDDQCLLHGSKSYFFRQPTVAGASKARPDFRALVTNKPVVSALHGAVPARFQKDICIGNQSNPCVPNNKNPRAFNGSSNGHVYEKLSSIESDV

Row | Structure (SMILES) | IC50 [nM]
1 | O=C1OCCN1Cc1cncc(-c2ccc(F)c(C(F)F)c2)n1 [Example 1, 3-[[6-[3-(Difluoromethyl)-4-fluoro-phenyl]pyrazin-2-yl]methyl]oxazolidin-2-one] | 195
2 | CC1(C)CN(Cc2cncc(-c3ccc(F)c(C(F)F)c3)n2)C(=O)O1 [Example 4, 3-[[6-[3-(Difluoromethyl)-4-fluoro-phenyl]pyrazin-2-yl]methyl]-5,5-dimethyl-oxazolidin-2-one] | 1360
3 | C[C@@H]1CN(Cc2cncc(-c3ccc(F)c(C(F)F)c3)n2)C(=O)O1 [Example 5, (5R)-3-[[6-[3-(Difluoromethyl)-4-fluoro-phenyl]pyrazin-2-yl]methyl]-5-methyl-oxazolidin-2-one] | 29
4 | C[C@H]1CN(Cc2cncc(-c3ccc(F)c(C(F)F)c3)n2)C(=O)O1 [Example 6, (5S)-3-[[6-[3-(Difluoromethyl)-4-fluoro-phenyl]pyrazin-2-yl]methyl]-5-methyl-oxazolidin-2-one] | 60
5 | C[C@@H]1COC(=O)N1Cc1cncc(-c2ccc(F)c(C(F)F)c2)n1 [Example 7, (4R)-3-[[6-[3-(Difluoromethyl)-4-fluoro-phenyl]pyrazin-2-yl]methyl]-4-methyl-oxazolidin-2-one] | 288
6 | Cc1ncc(-c2ccc(F)c(C(F)F)c2)nc1CN1C(=O)OC[C@@H]1C [Example 12, (4S)-3-[[6-[3-(Difluoromethyl)-4-fluoro-phenyl]-3-methyl-pyrazin-2-yl]methyl]-4-methyl-oxazolidin-2-one] | 605
7 | O=C1OC2(CC2)CN1Cc1cncc(-c2ccc(F)c(OC(F)F)c2)n1 [Example 16, 5-[[6-[3-(Difluoromethoxy)-4-fluoro-phenyl]pyrazin-2-yl]methyl]-7-oxa-5-azaspiro[2.4]heptan-6-one] | 19
8 | CC1(C)CN(Cc2cncc(-c3ccc(F)c(OC(F)F)c3)n2)C(=O)O1 [Example 17, 3-[[6-[3-(Difluoromethoxy)-4-fluoro-phenyl]pyrazin-2-yl]methyl]-5,5-dimethyl-oxazolidin-2-one] | 1140
9 | C[C@@H]1COC(=O)N1Cc1cncc(-c2ccc(F)c(OC(F)F)c2)n1 [Example 18, (4R)-3-[[6-[3-(Difluoromethoxy)-4-fluoro-phenyl]pyrazin-2-yl]methyl]-4-methyl-oxazolidin-2-one] | 44
10 | C[C@H]1COC(=O)N1Cc1cncc(-c2ccc(F)c(OC(F)F)c2)n1 [Example 19, (4S)-3-[[6-[3-(Difluoromethoxy)-4-fluoro-phenyl]pyrazin-2-yl]methyl]-4-methyl-oxazolidin-2-one] | 291
11 | C[C@@H]1CN(Cc2cncc(-c3ccc(F)c(OC(F)F)c3)n2)C(=O)O1 [Example 20, (5R)-3-[[6-[3-(Difluoromethoxy)-4-fluoro-phenyl]pyrazin-2-yl]methyl]-5-methyl-oxazolidin-2-one] | 29
12 | C[C@H]1CN(Cc2cncc(-c3ccc(F)c(OC(F)F)c3)n2)C(=O)O1 [Example 21, (5S)-3-[[6-[3-(Difluoromethoxy)-4-fluoro-phenyl]pyrazin-2-yl]methyl]-5-methyl-oxazolidin-2-one] | 20
13 | O=C1OC2(CC2)CN1Cc1cncc(-c2ccc(Cl)c(OC(F)F)c2)n1 [Example 29, 5-[[6-[4-Chloro-3-(difluoromethoxy)phenyl]pyrazin-2-yl]methyl]-7-oxa-5-azaspiro[2.4]heptan-6-one] | 19
14 | CC1(C)CN(Cc2cncc(-c3ccc(Cl)c(OC(F)F)c3)n2)C(=O)O1 [Example 30, 3-[[6-[4-Chloro-3-(difluoromethoxy)phenyl]pyrazin-2-yl]methyl]-5,5-dimethyl-oxazolidin-2-one] | 669
15 | C[C@@H]1CN(Cc2cncc(-c3ccc(Cl)c(OC(F)F)c3)n2)C(=O)O1 [Example 31, (5R)-3-[[6-[4-Chloro-3-(difluoromethoxy)phenyl]pyrazin-2-yl]methyl]-5-methyl-oxazolidin-2-one] | 20
16 | C[C@H]1CN(Cc2cncc(-c3ccc(Cl)c(OC(F)F)c3)n2)C(=O)O1 [Example 32, (5S)-3-[[6-[4-Chloro-3-(difluoromethoxy)phenyl]pyrazin-2-yl]methyl]-5-methyl-oxazolidin-2-one] | 20
17 | C[C@@H]1COC(=O)N1Cc1cncc(-c2ccc(Cl)c(OC(F)F)c2)n1 [Example 33, (4R)-3-[[6-[4-Chloro-3-(difluoromethoxy)phenyl]pyrazin-2-yl]methyl]-4-methyl-oxazolidin-2-one] | 21
18 | C[C@H]1COC(=O)N1Cc1cncc(-c2ccc(Cl)c(OC(F)F)c2)n1 [Example 34, (4S)-3-[[6-[4-Chloro-3-(difluoromethoxy)phenyl]pyrazin-2-yl]methyl]-4-methyl-oxazolidin-2-one] | 86
19 | CC(F)(F)c1cccc(-c2cncc(CN3CC4(CC4)OC3=O)n2)c1 [Example 38, 5-[[6-[3-(1,1-Difluoroethyl)phenyl]pyrazin-2-yl]methyl]-7-oxa-5-azaspiro[2.4]heptan-6-one] | 17

Next, values leading:

Row | IC50 [nM] | Structure (SMILES)
20 | 73 | O=C1OCCN1Cc1cncc(-c2ccc(F)c(OC(F)F)c2)n1 [Example 2, 3-[[6-[3-(Difluoromethoxy)-4-fluoro-phenyl]pyrazin-2-yl]methyl]oxazolidin-2-one]
21 | 65 | O=C1OCCCN1Cc1cncc(-c2ccc(F)c(C(F)F)c2)n1 [Example 9, 3-[[6-[3-(Difluoromethyl)-4-fluoro-phenyl]pyrazin-2-yl]methyl]-1,3-oxazinan-2-one]
22 | 37 | Cc1ncc(-c2ccc(F)c(C(F)F)c2)nc1CN1CC2(CC2)OC1=O [Example 10, 5-[[6-[3-(Difluoromethyl)-4-fluoro-phenyl]-3-methyl-pyrazin-2-yl]methyl]-7-oxa-5-azaspiro[2.4]heptan-6-one]
23 | 45 | Cc1ncc(-c2ccc(F)c(C(F)F)c2)nc1CN1C[C@@H](C)OC1=O [Example 13, (5R)-3-[[6-[3-(Difluoromethyl)-4-fluoro-phenyl]-3-methyl-pyrazin-2-yl]methyl]-5-methyl-oxazolidin-2-one]
24 | 50 | Cc1ncc(-c2ccc(F)c(C(F)F)c2)nc1CN1C[C@H](C)OC1=O [Example 14, (5S)-3-[[6-[3-(Difluoromethyl)-4-fluoro-phenyl]-3-methyl-pyrazin-2-yl]methyl]-5-methyl-oxazolidin-2-one]
25 | 17 | O=C1OCCCN1Cc1cncc(-c2ccc(F)c(OC(F)F)c2)n1 [Example 22, 3-[[6-[3-(Difluoromethoxy)-4-fluoro-phenyl]pyrazin-2-yl]methyl]-1,3-oxazinan-2-one]
26 | 66 | Cc1ncc(-c2ccc(F)c(OC(F)F)c2)nc1CN1CC2(CC2)OC1=O [Example 23, 5-[[6-[3-(Difluoromethoxy)-4-fluoro-phenyl]-3-methyl-pyrazin-2-yl]methyl]-7-oxa-5-azaspiro[2.4]heptan-6-one]
27 | 78 | Cc1ncc(-c2ccc(F)c(OC(F)F)c2)nc1CN1C(=O)OC[C@H]1C [Example 24, (4R)-3-[[6-[3-(Difluoromethoxy)-4-fluoro-phenyl]-3-methyl-pyrazin-2-yl]methyl]-4-methyl-oxazolidin-2-one]
28 | 388 | Cc1ncc(-c2ccc(F)c(OC(F)F)c2)nc1CN1C(=O)OC[C@@H]1C [Example 25, (4S)-3-[[6-[3-(Difluoromethoxy)-4-fluoro-phenyl]-3-methyl-pyrazin-2-yl]methyl]-4-methyl-oxazolidin-2-one]
29 | 52 | Cc1ncc(-c2ccc(F)c(OC(F)F)c2)nc1CN1C[C@@H](C)OC1=O [Example 26, (5R)-3-[[6-[3-(Difluoromethoxy)-4-fluoro-phenyl]-3-methyl-pyrazin-2-yl]methyl]-5-methyl-oxazolidin-2-one]
30 | 48 | Cc1ncc(-c2ccc(F)c(OC(F)F)c2)nc1CN1C[C@H](C)OC1=O [Example 27, (5S)-3-[[6-[3-(Difluoromethoxy)-4-fluoro-phenyl]-3-methyl-pyrazin-2-yl]methyl]-5-methyl-oxazolidin-2-one]
31 | 39 | Cc1ncc(-c2ccc(F)c(OC(F)F)c2)nc1CN1CCCOC1=O [Example 28, 3-[[6-[3-(Difluoromethoxy)-4-fluoro-phenyl]-3-methyl-pyrazin-2-yl]methyl]-1,3-oxazinan-2-one]
32 | 13 | O=C1OCCCN1Cc1cncc(-c2ccc(Cl)c(OC(F)F)c2)n1 [Example 35, 3-[[6-[4-Chloro-3-(difluoromethoxy)phenyl]pyrazin-2-yl]methyl]-1,3-oxazinan-2-one]
33 | 113 | Cc1ncc(-c2ccc(Cl)c(OC(F)F)c2)nc1CN1CC2(CC2)OC1=O [Example 36, 5-[[6-[4-Chloro-3-(difluoromethoxy)phenyl]-3-methyl-pyrazin-2-yl]methyl]-7-oxa-5-azaspiro[2.4]heptan-6-one]
34 | 18 | Cc1ncc(-c2ccc(Cl)c(OC(F)F)c2)nc1CN1CCCOC1=O [Example 37, 3-[[6-[4-Chloro-3-(difluoromethoxy)phenyl]-3-methyl-pyrazin-2-yl]methyl]-1,3-oxazinan-2-one]
